Assay results as given in patent US10604512B2, “3-(1H-indol-2-yl)-1H-indazoles and therapeutic uses thereof” (Samumed, LLC, priority 2015, dated 2020).
pEC50: −log10 of the molar value.

Columns and labels:
[1] = test system: primary human mesenchymal stem cells (hMSCs); assay: Induction of chondrogenesis in primary human mesenchymal stem cells (nodule imaging, Rhodamine B / Nile Red); type: cell-based; settings: for EC50: concentration required to induce 50% levels of chondrogenesis vs TGF-β3 positive control, read-out: Conc (nM) of 50% TGF-β3 activity; for Emax: maximum chondrogenesis activity relative to TGF-β3 (10 ng/mL) positive control, read-out: Max. Activity as % TGF-β3 activity
Method: Representative compounds were screened using primary human mesenchymal stem cells (hMSCs) to determine their ability to induce chondrogenesis (process by which cartilage is developed).
Primary human mesenchymal stem cells (hMSCs) were purchased from Lonza (Walkersville, Md.) and expanded in Mesenchymal Stem Cell Growth Media (Lonza). Cells between passage 3 and 6 were used for the experiments.
Each compound was dissolved in DMSO as a 10 mM stock and used to prepare compound source plates. For the 96 well assay, serial dilution (1:3, 6-point dose-response curves from 2700 nM to 10 nM) and compound transfer was performed using the ECHO 550 (Labcyte, Sunnyvale, Calif.) into 96-well clear bottom assay plates (Greiner Bio-One) with appropriate DMSO backfill for a final DMSO concentration of 0.03%. hMSCs were plated at 20,000 cells/well in 250 μL/well Incomplete Chondrogenic Induction Medium (Lonza; DMEM, dexamethasone, ascorbate, insulin-transferrin-selenium [ITS supplement], gentamycin-amphotericin [GA-1000], sodium pyruvate, proline and L-glutamine). TGF-β3 (10 ng/mL) was used as a positive control for differentiation while negative control wells were treated with 75 nL DMSO for normalization and calculating EC50 values. For the 384 well assay, serial dilution (1:3, 8-point dose-response curves from 5000 nM to 2.2 nM) and compound transfer was performed using the ECHO 550 (Labcyte, Sunnyvale, Calif.) into 384-well clear bottom assay plates (Greiner Bio-One) with appropriate DMSO backfill for a final DMSO concentration of 0.03%. hMSCs were plated at 8,000 cells/well in 80 μL/well Incomplete Chondrogenic Induction Medium (Lonza; DMEM, dexamethasone, ascorbate, insulin-transferrin-selenium [ITS supplement], gentamycin-amphotericin [GA-1000], sodium pyruvate, proline and L-glutamine). TGF-β3 (10 ng/mL) was used as a positive control for differentiation while negative control wells were treated with 25 nL DMSO for normalization and calculating EC50 values. Cells were incubated at 37° C. and 5% CO2 for 6 days. To image chondrogenic nodules, the cells were fixed using 4% formaldehyde (Electron Microscopy Sciences), and stained with 2 μg/mL Rhodamine B (Sigma-Aldrich) and 20 μM Nile Red (Sigma-Aldrich) [Johnson K., et. al, A Stem CellBased Approach to Cartilage Repair, Science, (2012), 336(6082), 717-721]. The nodules imaged (25 images per well for 96 well plates and 9 images per well for 384 well plates at 10× magnification) by excitation at 531 nm and emission at 625 nm and quantified using the CellInsight CX5 (Thermo Scientific). Area of nodules in each well was normalized to the average of 3 DMSO treated wells on the same plate using Excel (Microsoft Inc.). The normalized averages (fold change over DMSO) of 2 or 3 replicate wells for each compound concentration were calculated. Due to solubility limitations of some of the compounds, curve fitting was incomplete leading to inaccurate EC50 determinations.
Using TGF-β3 as a positive control, the concentration of representative compounds required to induce 50% levels of chondrogenesis is reported. In addition, the maximum activity of each compound and the respective dose that each compound reached maximum chondrogenesis activity is reported.

[2] = test system: IL-6; assay: Inhibition of IL-6 in LPS-stimulated THP-1 human monocyte cells (HTRF); type: cell-based; settings: for pEC50: IL-6 inhibition, LPS-stimulated THP-1 cells, HTRF; for inhibition at 10 µM: THP-1, printed beside >10 μM EC50, top concentration 10 μM, meaning not given, read-out: percentage in parentheses after EC50 >10
How it was run: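 THP-1 cells serum-reduced (1% FBS, 24 h), then 5000 cells/well preincubated 2 h with compound (10-point 1:3 series from 10 μM, 0.1% DMSO) before 500 ng/mL LPS for 22 h at 37 °C. Secreted IL-6 quantified by HTRF 665/620 ratio; DMSO-normalised duplicates fitted to four-parameter EC50; above 10 μM, % inhibition at 10 μM given.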

EC50 [1] [nM]	pEC50 [2]	Compound	Emax [1] [%]	inhibition at 10 µM [2] [%]
10	6.68	c1ccc2[nH]c(-c3n[nH]c4ccc(-c5cncc(OCCN6CCCC6)c5)cc34)cc2c1 [Compound 686, 3-(1H-Indol-2-yl)-5-(5-(2-(pyrrolidin-1-yl)ethoxy)pyridin-3-yl)-1H-indazole]	213	
30	< 5.00	CCC(=O)Nc1cncc(-c2ccc3[nH]nc(-c4cc5c(N6CCCCC6)cccc5[nH]4)c3c2)c1 [Compound 169, N-(5-(3-(4-(Piperidin-1-yl)-1H-indol-2-yl)-1H-indazol-5-yl)pyridin-3-yl) propionamide]	171	41.7
10	6.79	CCNCc1cncc(-c2ccc3[nH]nc(-c4cc5ccccc5[nH]4)c3c2)c1 [Compound 258, N-((5-(3-(1H-Indol-2-yl)-1H-indazol-5-yl)pyridin-3-yl)methyl)ethanamine]	532	
100	5.94	CN1CCN(c2cccc3[nH]c(-c4n[nH]c5ccc(-c6cncc(CN7CCCCC7)c6)cc45)cc23)CC1 [Compound 239, 3-(4-(4-Methylpiperazin-1-yl)-1H-indol-2-yl)-5-(5-(piperidin-1-ylmethyl)pyridin-3-yl)-1H-indazole]	198	
100	5.74	CN1CCN(c2cccc3[nH]c(-c4n[nH]c5ccc(-c6cncc(N)c6)cc45)cc23)CC1 [Compound 227, 5-(3-(4-(4-Methylpiperazin-1-yl)-1H-indol-2-yl)-1H-indazol-5-yl)pyridin-3-amine]	166	
10	< 5.00	c1cncc(-c2cccc3[nH]c(-c4n[nH]c5ccc(-c6cncc(CN7CCCCC7)c6)cc45)cc23)c1 [Compound 99, 5-(5-(Piperidin-1-ylmethyl)pyridin-3-yl)-3-(4-(pyridin-3-yl)-1H-indol-2-yl)-1H-indazole]	212	50.5
30	< 5.00	Fc1ccc(-c2cccc3[nH]c(-c4n[nH]c5ccc(-c6cncc(CN7CCCC7)c6)cc45)cc23)cc1 [Compound 42, 3-(4-(4-Fluorophenyl)-1H-indol-2-yl)-5-(5-(pyrrolidin-1-ylmethyl)pyridin-3-yl)-1H-indazole]	197	47.8
30	6.82	CN(C)Cc1cncc(-c2ccc3[nH]nc(-c4cc5c(-c6ccncc6)cccc5[nH]4)c3c2)c1 [Compound 125, N,N-dimethyl-1-(5-(3-(4-(Pyridin-4-yl)-1H-indol-2-yl)-1H-indazol-5-yl)pyridin-3-yl)methanamine]	191	
	< 5.00	O=C(Nc1cncc(-c2ccc3[nH]nc(-c4cc5c(-c6cccc(F)c6)cccc5[nH]4)c3c2)c1)C1CC1 [Compound 20, N-(5-(3-(4-(3-Fluorophenyl)-1H-indol-2-yl)-1H-indazol-5-yl)pyridin-3-yl) cyclopropanecarboxamide]		44.7
	< 5.00	O=C(Nc1cncc(-c2ccc3[nH]nc(-c4cc5c(-c6cccc(F)c6)cccc5[nH]4)c3c2)c1)C1CCCCC1 [Compound 23, N-(5-(3-(4-(3-Fluorophenyl)-1H-indol-2-yl)-1H-indazol-5-yl)pyridin-3-yl) cyclohexanecarboxamide]		34.2
	7.62	O=C(Nc1cncc(-c2ccc3[nH]nc(-c4cc5ncccc5[nH]4)c3c2)c1)C1CCC1 [Compound 525, N-(5-(3-(1H-Pyrrolo[3,2-b]pyridin-2-yl)-1H-indazol-5-yl)pyridin-3-yl) cyclobutanecarboxamide]		
	< 5.00	c1cc(-c2ccoc2)c2cc(-c3n[nH]c4ccc(-c5cncc(OC6CCNCC6)c5)cc34)[nH]c2c1 [Compound 716, 3-(4-(Furan-3-yl)-1H-indol-2-yl)-5-(5-(piperidin-4-yloxy)pyridin-3-yl)-1H-indazole]		25.5
	< 5.00	O=C(Cc1ccccc1)Nc1cncc(-c2ccc3[nH]nc(-c4cc5ccccc5[nH]4)c3c2)c1 [Compound 262, N-(5-(3-(1H-Indol-2-yl)-1H-indazol-5-yl)pyridin-3-yl)-2-phenylacetamide]		0
	5.76	c1ccc2[nH]c(-c3n[nH]c4ccc(-c5cncc(CN6CCCCC6)c5)cc34)cc2c1 [Compound 267, 3-(1H-Indol-2-yl)-5-(5-(piperidin-1-ylmethyl)pyridin-3-yl)-1H-indazole]		
	< 5.00	CC(C)(C)CC(=O)Nc1cncc(-c2ccc3[nH]nc(-c4cc5ccccc5[nH]4)c3c2)c1 [Compound 268, N-(5-(3-(1H-Indol-2-yl)-1H-indazol-5-yl)pyridin-3-yl)-3,3-dimethylbutanamide]		0
	< 5.00	O=C(Nc1cncc(-c2ccc3[nH]nc(-c4cc5c(-c6ccccn6)cccc5[nH]4)c3c2)c1)c1ccccc1 [Compound 151, N-(5-(3-(4-(Pyridin-2-yl)-1H-indol-2-yl)-1H-indazol-5-yl)pyridin-3-yl) benzamide]		46.9
	< 5.00	CC(C)CC(=O)Nc1cncc(-c2ccc3[nH]nc(-c4cc5c(-c6ccc(F)cc6)cccc5[nH]4)c3c2)c1 [Compound 30, N-(5-(3-(4-(4-Fluorophenyl)-1H-indol-2-yl)-1H-indazol-5-yl)pyridin-3-yl)-3-methylbutanamide]		27.9
	7.44	CN(C)Cc1cncc(-c2ccc3[nH]nc(-c4cc5c(-c6cccc(F)c6)cccc5[nH]4)c3c2)c1 [Compound 13, 1-(5-(3-(4-(3-Fluorophenyl)-1H-indol-2-yl)-1H-indazol-5-yl)pyridin-3-yl)-N,N-dimethylmethanamine]		
	6.87	c1ccc(-c2ccc3[nH]nc(-c4cc5c(-c6ccncc6)cccc5[nH]4)c3c2)nc1 [Compound 140, 5-(Pyridin-2-yl)-3-(4-(pyridin-4-yl)-1H-indol-2-yl)-1H-indazole]		
	< 5.00	FC1(F)CCN(Cc2cncc(-c3ccc4[nH]nc(-c5cc6c(-c7cccnc7)cccc6[nH]5)c4c3)c2)C1 [Compound 110, 5-(5-((3,3-Difluoropyrrolidin-1-yl)methyl)pyridin-3-yl)-3-(4-(pyridin-3-yl)-1H-indol-2-yl)-1H-indazole]		32.2
	< 5.00	CCCC(=O)Nc1cncc(-c2ccc3[nH]nc(-c4cc5c(-c6ccc(F)cc6)cccc5[nH]4)c3c2)c1 [Compound 45, N-(5-(3-(4-(4-Fluorophenyl)-1H-indol-2-yl)-1H-indazol-5-yl)pyridin-3-yl)butyramide]		44.6
	6.99	Fc1cccc(-c2cccc3[nH]c(-c4n[nH]c5ccc(-c6ccccn6)cc45)cc23)c1 [Compound 28, 3-(4-(3-Fluorophenyl)-1H-indol-2-yl)-5-(pyridin-2-yl)-1H-indazole]		
	6.99	CC(C)CC(=O)Nc1cncc(-c2ccc3[nH]nc(-c4cc5ncccc5[nH]4)c3c2)c1 [Compound 506, N-(5-(3-(1H-Pyrrolo[3,2-b]pyridin-2-yl)-1H-indazol-5-yl)pyridin-3-yl)-3-methylbutanamide]		
	< 5.00	O=C(Nc1cncc(-c2ccc3[nH]nc(-c4cc5ccccc5[nH]4)c3c2)c1)C1CCC1 [Compound 273, N-(5-(3-(1H-Indol-2-yl)-1H-indazol-5-yl)pyridin-3-yl) cyclobutanecarboxamide]		44.3
